Reference: patent US8575382B2, “Low molecular weight pharmacological activity modulators” (“Ivy Pharm” LLC, priority 2009, dated 2013)
“And” between values parts separate entries of the source, which are not always exact repeats. Equal values may be shown once. Marks after values point to notes of the source that are not given here.

Legend:
[1] = system: mice with hyperglycemia caused by glucose; assay: Glucose loading test, blood sugar level; assay type: in vivo
Procedure: the glucose loading test (reduction in the sugar content in animals with hyperglycemia, caused by administration of glucose when fasting); Blood was obtained after 1 h by caudal vein puncture and the serum glucose level was determined by the ortho-toluidine method. Experiments to study the effect of the test substances on the blood glucose level were carried out on white mice weighing 17-18 g. The animals were deprived of food from the evening prior to the experiment. […] Immediately after injecting the glucose, the experimental animals were injected subcutaneously with a reference preparation (insulin in a dose of 0.3 units/kg). […] The blood glucose level was determined over a period of 4 hours with intervals of 1 hour.

[2] = system: white rats with experimental diabetes; assay: Alloxan diabetes model; assay type: in vivo; conditions: for Cholesterol / Glucose / Total lipids / Triglycerides / β-lipoproteins: blood serum; for Body weight / Daily water consumption / Percent living: intragastrically once daily
Procedure: the alloxan diabetes model (reduction in the sugar content in the conditions of experimental chronic insulin insufficiency).
The alloxan diabetes model was used in another series of experiments. Alloxan diabetes was induced by a single subcutaneous injection of alloxan hydrate (Chemapol, Czech Republic) in a dose of 100 mg/kg in rats weighing 180-200 g which had fasted for 24 hours. The following groups of animals were studied: intact rats, untreated rats with diabetes, and animals with diabetes which were given thioctic acid daily for 1 month in a dose of 100 mg/kg, and thioctic acid in combination with the coordination compound in a dose of 10 mg/kg intragastrically once daily. Administration of the preparations commenced after 7 days, when the blood glucose level had roughly doubled as compared with the control. Each group contained 20 animals of both sexes. The general condition of the animals, the demand for food and water, the body weight, and the blood serum levels of glucose, total lipids, triglycerides, lipoproteins and cholesterol were recorded in the course of the experiment. […]

[3] = system: A431 line human epidermoid carcinoma cells; assay: Proliferative activity and death of A431 cells (cell count, propidium iodide flow cytofluorimetry); assay type: cell-based; conditions: for Proportion of dead cells / Total cells: A431, EGF 200 ng/ml
Procedure: The number of living and dead cells in a culture was determined after 24 and 48 hours.
A431 line human epidermoid carcinoma cells, obtained from the All-Russian Cell Culture Collection (Russian Academy of Sciences Institute of Cytology, St. Petersburg).
Cells are cultured in a CO2 incubator (New Brunswick Scientific) at +37° C. and with a CO2 content of 5%. Cells are grown in these conditions to a monolayer culture and are exposed to the action of the test compounds.
The DMEM medium (OOO PanEko, Moscow) with the addition of gentamicin K (80 mg/l), L-glutamine (300 mg/l) and fetal serum (PAA, Austria) to a final concentration of 10%, is used for culturing cells. Cells are transferred to a medium with a reduced serum content of 0.5% 24 hours before commencing an experiment.
The cells were then suspended by pipetting with an automatic pipette and were combined with the previously collected medium. Samples were centrifuged at room temperature for 5 min at 400 g, the supernatant was removed and the deposit was resuspended in pH 7.4 PBS phosphate-salt buffer.
Propidium iodide was added to a suspension of cells to a concentration of 50 μg/ml 5-10 min before measuring in a Bruker ACR 1000 flow cytofluorimeter. This stain is able to penetrate through a damaged cell membrane, and stained cells are dead.

male rats with cytopenia = assay: Hemostimulating activity: general blood analysis of rats with cyclophosphane cytopenia; assay type: in vivo; conditions: for hemostimulating effect (in words): rats with cyclophosphane cytopenia, summary of Tables 5-7; for ESR / Erythrocytes / Leukocytes / Lymphoctes / Reticulocytes / Segmented neutrophils / Thrombocytes / Lymphocytes: rats, acetylcysteine 9.5, lithium carbonate 3, aC-Li 10, Cu-aC-Li:aC-Li 10 mg/kg
Procedure: The study was carried out on random-bred male white rats weighing 140-160 g, which were given a single subcutaneous injection of cyclophosphane in a dose of 100 mg/kg in physiological saline.
No. 3—animals which had received an injection of cyclophosphane and to which Cu-aC-Li:aC-Li in physiological saline was then administered in a dose of 10 mg/kg as a therapeutic means (amount of coordination compound 7.8×10^−8 M/kg);
No. 4—animals which had received an injection of cyclophosphane and to which aC-Li in physiological saline was then administered in a dose of 10 mg/kg as a therapeutic means;
No. 6—animals which had received an injection of cyclophosphane and to which acetylcysteine in physiological saline was then administered in a dose of 9.5 mg/kg as a therapeutic means (the amount of acetylcysteine was calculated on the basis of the proportion by weight of acetylcysteine (˜0.95) in 10 mg of […], which corresponds to 9.5 mg of the hydrogenated form of acetylcysteine).
The test preparations were administered on the third day after the administration of cyclophosphane.
Blood for hematological investigations was taken from the caudal vein 3, 7 and 14 days after administration of CP. At the end of each series (3, 7 and 14 days), the experimental animals were euthanized by an overdose of ether and blood was obtained from the caudal vein and bone marrow from the femur.
This study assessed the cellularity of the blood (the number of erythrocytes, thrombocytes, leukocytes, lymphocytes and neutrophils, and also the ESR) and bone marrow on 7-day administration of the test compounds to hemodepressed animals.

[4] = Table 2, age of culture 24 hours, cysteine […], C—Pd […], C—Pd:C […]
[5] = Table 2, age of culture 48 hours, cysteine […], C—Pd […], C—Pd:C […]
[6] = day 3 after cyclophosphane 100 mg/kg
[7] = day 14 after cyclophosphane 100 mg/kg
[8] = day 7 after cyclophosphane 100 mg/kg

Compound: O=C(O)CCCCC1CCSS1 (centres unmarked) [Thioctic acid, thioctic acid]
- Blood sugar level ([1]; 5.5 mg/kg intramuscularly, 1 hour): 4.3 ± 0.2 mmol/L
- Blood sugar level ([1]; 5.5 mg/kg intramuscularly, 2 hours): 4.0 ± 0.2 mmol/L
- Blood sugar level ([1]; 5.5 mg/kg intramuscularly, 3 hours): 4.4 ± 0.3 mmol/L
- Blood sugar level ([1]; 5.5 mg/kg intramuscularly, 4 hours): 4.1 ± 0.1 mmol/L
- Blood sugar level ([1]; 11 mg/kg intramuscularly, 1 hour): 4.5 ± 0.2 mmol/L
- Blood sugar level ([1]; 11 mg/kg intramuscularly, 2 hours): 4.2 ± 0.2 mmol/L
- Blood sugar level ([1]; 11 mg/kg intramuscularly, 3 hours): 4.2 ± 0.3 mmol/L
- Blood sugar level ([1]; 11 mg/kg intramuscularly, 4 hours): 4.2 ± 0.1 mmol/L
- Blood sugar level ([1]; 100 mg/kg intramuscularly, 1 hour): 3.0 ± 0.3 mmol/L
- Blood sugar level ([1]; 100 mg/kg intramuscularly, 2 hours): 2.8 ± 0.1 mmol/L
- Blood sugar level ([1]; 100 mg/kg intramuscularly, 3 hours): 2.5 ± 0.1 mmol/L
- Blood sugar level ([1]; 100 mg/kg intramuscularly, 4 hours): 2.4 ± 0.3 mmol/L
- Blood sugar level ([1]; 200 mg/kg intramuscularly, 1 hour): 2.7 ± 0.2 mmol/L
- Blood sugar level ([1]; 200 mg/kg intramuscularly, 2 hours): 2.6 ± 0.3 mmol/L
- Blood sugar level ([1]; 200 mg/kg intramuscularly, 3 hours): 2.3 ± 0.2 mmol/L
- Blood sugar level ([1]; 200 mg/kg intramuscularly, 4 hours): 2.1 ± 0.2 mmol/L
- hypoglycemizing effect (in words) ([1]; doses of 5.5 and 11 mg/kg, without the coordination compound): did not exhibit a hypoglycemizing effect
- Cholesterol ([2]; 14 days): 2.4 ± 0.2 mmol/L
- Glucose ([2]; 14 days): 5.2 ± 0.2 mmol/L
- Total lipids ([2]; 14 days): 10.4 ± 0.5 g/L
- Triglycerides ([2]; 14 days): 2.3 ± 0.2 mmol/L
- β-lipoproteins ([2]; 14 days): 2.1 ± 0.2 g/L
- Body weight ([2]; 14 days): 180 ± 10 g
- Daily water consumption ([2]; 14 days): 25 ± 5
- Percent living ([2]; 14 days): 100%
- Cholesterol ([2]; 20 days): 1.4 ± 0.2 mmol/L
- Glucose ([2]; 20 days): 4.8 ± 0.1 mmol/L
- Total lipids ([2]; 20 days): 10.2 ± 0.3 g/L
- Triglycerides ([2]; 20 days): 1.5 ± 0.2 mmol/L
- β-lipoproteins ([2]; 20 days): 2.1 ± 0.3 g/L
- Body weight ([2]; 20 days): 185 ± 10 g
- Daily water consumption ([2]; 20 days): 22 ± 5
- Percent living ([2]; 20 days): 100%
- Cholesterol ([2]; 30 days): 1.4 ± 0.1 mmol/L
- Glucose ([2]; 30 days): 4.6 ± 0.2 mmol/L
- Total lipids ([2]; 30 days): 9.5 ± 0.2 g/L
- Triglycerides ([2]; 30 days): 1.4 ± 0.2 mmol/L
- β-lipoproteins ([2]; 30 days): 2.1 ± 0.3 g/L
- Body weight ([2]; 30 days): 195 ± 10 g
- Daily water consumption ([2]; 30 days): 20 ± 3
- Percent living ([2]; 30 days): 100%

Compound: Epidermal growth factor: physiological high-affinity ligand of the EGF receptor
- Proportion of dead cells [3, 4]: 19%
- Total cells [3, 4]: 47300 mL⁻¹
- Proportion of dead cells [3, 5]: 23%
- Total cells [3, 5]: 68800 mL⁻¹
- Proportion of dead cells ([3]; Table 3, 24 hours): 22%
- Total cells ([3]; Table 3, 24 hours): 52000 mL⁻¹
- Proportion of dead cells ([3]; Table 3, 48 hours): 29%
- Total cells ([3]; Table 3, 48 hours): 71700 mL⁻¹
- effect on the proliferative activity of A431 cells (in words) ([3]; summary of Table 2): maximum stimulating effect

Compound: CC(=O)N[C@@H](CS)C(=O)[O-].[Li+] [aC—Li, lithium salt of acetylcysteine]
- hemostimulating effect (in words) (male rats with cytopenia): positive trends
- ESR (male rats with cytopenia; [6]): 3.3 ± 0.80 mm/h
- Erythrocytes (male rats with cytopenia; [6]): 4.0 ± 0.23 10^12/l
- Leukocytes (male rats with cytopenia; [6]): 4.38 ± 0.31* 10^9/l
- Lymphoctes (male rats with cytopenia; [6]): 45 ± 1.6 %
- Reticulocytes (male rats with cytopenia; [6]): 0.1 ± 0.1 %
- Segmented neutrophils (male rats with cytopenia; [6]): 42 ± 1.6 %
- Thrombocytes (male rats with cytopenia; [6]): 387 ± 17.4 10^9/l
- ESR (male rats with cytopenia; [7]): 2.7 ± 0.49 mm/h
- Erythrocytes (male rats with cytopenia; [7]): 5.2 ± 0.26 10^12/l
- Leukocytes (male rats with cytopenia; [7]): 5.6 ± 0.22** 10^9/l
- Lymphocytes (male rats with cytopenia; [7]): 72.5 ± 1.4%
- Reticulocytes (male rats with cytopenia; [7]): 1.3 ± 0.3%
- Segmented neutrophils (male rats with cytopenia; [7]): 20.3 ± 2.4 %
- Thrombocytes (male rats with cytopenia; [7]): 390 ± 38.3 10^3/l

Compound: Insulin: reference preparation
- Blood sugar level ([1]; insulin 0.3 units/kg subcutaneously, 1 hour): 1.2 ± 0.1 mmol/L
- Blood sugar level ([1]; insulin 0.3 units/kg subcutaneously, 2 hours): 1.4 ± 0.1 mmol/L
- Blood sugar level ([1]; insulin 0.3 units/kg subcutaneously, 3 hours): 1.6 ± 0.2 mmol/L
- Blood sugar level ([1]; insulin 0.3 units/kg subcutaneously, 4 hours): 2.0 ± 0.1 mmol/L

Compound: CC(=O)N[C@@H](CS)C(=O)O [acetyl cysteine, acetylcysteine]
- hemostimulating effect (in words) (male rats with cytopenia): positive trends
- ESR (male rats with cytopenia; [6]): 2.2 ± 0.30 mm/h
- Erythrocytes (male rats with cytopenia; [6]): 3.0 ± 0.29 10^12/l
- Leukocytes (male rats with cytopenia; [6]): 3.26 ± 0.31* 10^9/l
- Lymphoctes (male rats with cytopenia; [6]): 68 ± 2.8 %
- Reticulocytes (male rats with cytopenia; [6]): 0.09 ± 0.006 %
- Segmented neutrophils (male rats with cytopenia; [6]): 17.6 ± 2.1 %
- Thrombocytes (male rats with cytopenia; [6]): 220 ± 45.3 10^9/l
- ESR (male rats with cytopenia; [8]): 1.9 ± 0.39 mm/h
- Erythrocytes (male rats with cytopenia; [8]): 3.1 ± 0.33 10^12/l
- Leukocytes (male rats with cytopenia; [8]): 3.47 ± 0.08* 10^9/l
- Lymphocytes (male rats with cytopenia; [8]): 51.5 ± 1.3 %
- Segmented neutrophils (male rats with cytopenia; [8]): 30 ± 1.8 %
- Thrombocytes (male rats with cytopenia; [8]): 124 ± 11 10^9/L
- ESR (male rats with cytopenia; [7]): 2.1 ± 0.73 mm/h
- Erythrocytes (male rats with cytopenia; [7]): 4.7 ± 0.21 10^12/l
- Leukocytes (male rats with cytopenia; [7]): 5.7 ± 0.22** 10^9/l
- Lymphocytes (male rats with cytopenia; [7]): 72.1 ± 1.6%
- Reticulocytes (male rats with cytopenia; [7]): 1.1 ± 0.4%
- Segmented neutrophils (male rats with cytopenia; [7]): 13.3 ± 1.9 %

Compound: O=C([O-])[O-].[Li+].[Li+] [Li2HCO3, lithium carbonate]
- hemostimulating effect (in words) (male rats with cytopenia): positive trends
- ESR (male rats with cytopenia; [6]): 2.4 ± 0.42 mm/h
- Erythrocytes (male rats with cytopenia; [6]): 3.7 ± 0.21 10^12/l
- Leukocytes (male rats with cytopenia; [6]): 3.75 ± 0.46* 10^9/l
- Lymphoctes (male rats with cytopenia; [6]): 62 ± 3.8 %
- Reticulocytes (male rats with cytopenia; [6]): 0.118 ± 0.01 %
- Segmented neutrophils (male rats with cytopenia; [6]): 19.7 ± 3.4 %
- Thrombocytes (male rats with cytopenia; [6]): 256 ± 45.3 10^9/l
- ESR (male rats with cytopenia; [8]): 2.0 ± 0.36 mm/h and 3.2 ± 0.80 mm/h
- Erythrocytes (male rats with cytopenia; [8]): 3.6 ± 0.29 10^12/l and 3.2 ± 0.18 10^12/l
- Leukocytes (male rats with cytopenia; [8]): 3.22 ± 0.11* 10^9/l and 4.8 ± 0.18** 10^9/l
- Reticulocytes (male rats with cytopenia; [8]): 1.1 ± 0.1% and 1.2 ± 0.2%
- Segmented neutrophils (male rats with cytopenia; [8]): 33 ± 1.7 % and 50.4 ± 0.6 %
- Thrombocytes (male rats with cytopenia; [8]): 119 ± 12.0** 10^3/l and 164 ± 10.0** 10^3/l
- ESR (male rats with cytopenia; [7]): 2.4 ± 0.65 mm/h
- Erythrocytes (male rats with cytopenia; [7]): 4.9 ± 0.27 10^12/l
- Leukocytes (male rats with cytopenia; [7]): 5.9 ± 0.26** 10^9/l
- Lymphocytes (male rats with cytopenia; [7]): 69.3 ± 0.9%
- Reticulocytes (male rats with cytopenia; [7]): 1.4 ± 0.3%
- Segmented neutrophils (male rats with cytopenia; [7]): 14.9 ± 2.6 %
- Thrombocytes (male rats with cytopenia; [7]): 401 ± 59.9 10^3/l
